Converted amounts (≈) assume the structure as drawn. The source made the active and inactive calls. The rule behind the calls is not given here.
Key:
[1] = system: Botrytis cinerea; experiment: Antifungal activity against Botryotinia fuckeliana SAS56 assessed as complete inhibition of colony growth at 3 mg/ml; assay type: functional, organism-based
[2] = system: Botrytis cinerea; experiment: Antifungal activity against Botryotinia fuckeliana SAS405 assessed as inhibition of colony growth; assay type: functional, organism-based
[3] = system: Botrytis cinerea; experiment: Antifungal activity against Botryotinia fuckeliana SAS56 assessed as inhibition of colony growth; assay type: functional, organism-based
[4] = system: Botrytis cinerea; experiment: Resistance index, ratio of EC50 for QoI fungicide-resistant Botryotinia fuckeliana lab isolates to EC50 for Botryotinia fuckeliana SAS405; assay type: functional
[5] = system: Botrytis cinerea; experiment: Resistance index, ratio of EC50 for QoI fungicide-resistant Botryotinia fuckeliana lab isolates to EC50 for Botryotinia fuckeliana SAS56; assay type: functional
[6] = system: Botrytis cinerea; experiment: Antifungal activity against QoI fungicide-resistant Botryotinia fuckeliana lab isolates assessed as inhibition of colony growth; assay type: functional, organism-based
[7] = system: Botrytis cinerea; experiment: Resistance index, ratio of EC50 for QoI fungicide-resistant Botryotinia fuckeliana field isolates expressing cytb G143A mutant gene to EC50 for Botryotinia fuckeliana SAS405; assay type: functional
[8] = system: Botrytis cinerea; experiment: Resistance index, ratio of EC50 for QoI fungicide-resistant Botryotinia fuckeliana field isolates expressing cytb G143A mutant gene to EC50 for Botryotinia fuckeliana SAS56; assay type: functional
[9] = system: Botrytis cinerea; experiment: Antifungal activity against QoI fungicide-resistant Botryotinia fuckeliana field isolates expressing cytb G143A mutant gene assessed as inhibition of colony growth; assay type: functional, organism-based
[10] = system: Botrytis cinerea; experiment: Antifungal activity against Botryotinia fuckeliana SAS56 assessed as complete inhibition of colony growth at […]; assay type: functional, organism-based

| Compound | growth inhibition (GI) [1] | EC50 [2] [µg/mL] | EC50 [3] [µg/mL] | Ratio EC50 [4] | Ratio EC50 [5] | EC50 [6] [µg/mL] | Ratio EC50 [7] | Ratio EC50 [8] | EC50 [9] [µg/mL] | growth inhibition (GI) [10] | MIC [2] [µg/mL] | MIC [3] [µg/mL] |
| --- | --- | --- | --- | --- | --- | --- | --- | --- | --- | --- | --- | --- |
| CO/C=C(/C(=O)OC)c1ccccc1Oc1cc(Oc2ccccc2C#N)ncn1 [AZOXYSTROBIN] | Active | 0.1 (≈ 0.248 µM) | 0.1 (≈ 0.248 µM) | – | – | – | – | – | – | – | – | – |
| CO/N=C(/C(=O)OC)c1ccccc1COc1ccccc1C [KRESOXIM-METHYL] | Active | 0.01 (≈ 0.0319 µM) | 0.01 (≈ 0.0319 µM) | – | – | – | – | – | – | – | – | – |
| CO/N=C(\C(=O)OC)c1ccccc1CO/N=C(\C)c1cccc(C(F)(F)F)c1 | – | 0.01 (≈ 0.0245 µM) | < 0.01 | >1000 | >1000 | > 100 | >1000 | >1000 | > 100 | Active | 1 (≈ 2.45 µM) | 1 (≈ 2.45 µM) |

— ChEMBL document CHEMBL3046037, “Genetic analysis and molecular characterisation of laboratory and field mutants of Botryotinia fuckeliana (Botrytis cinerea) resistant to QoI fungicides” (Pest Manag Sci, 2012)
